# Measured values published in EPA's ToxRefDB 2.
# How the values were obtained:
# rat [1] = conditions: Prenatal developmental toxicity study, sprague dawley, Oral, Gavage/Intubation, dose end: 15 GD
# rabbit [2] = conditions: Sub-acute dermal toxicity, new zealand white, Topical, dose end: 21 day, group: systemic
# rat [3] = conditions: Prenatal developmental toxicity study, wistar, Oral, Gavage/Intubation, dose end: 17 GD
# rat [4] = conditions: Prenatal developmental toxicity study, sprague dawley, Oral, Gavage/Intubation, dose end: 16 GD
# rabbit [5] = conditions: Prenatal developmental toxicity study, new zealand white, Dermal, Topical, dose end: 18 GD
# guinea-pig = conditions: Subchronic dermal toxicity, hartley, Topical, dose end: 13 week, group: systemic
# rat [6] = conditions: Prenatal developmental toxicity study, sprague dawley, Oral, Gavage/Intubation, dose end: 16 GD; remark: listed apart in the source
# rat [7] = conditions: Subchronic oral toxicity in rodents, sprague dawley, Feed, dose end: 90 day, group: systemic, systemic / organ weight / liver / absolute + systemic / organ weight / liver / relative to body weight + systemic / clinical chemistry / …
# mouse [8] = conditions: Carcinogenicity; cd1; Oral; Feed; dose end: 105 week; group: systemic; systemic / pathology microscopic / liver / adenocarcinoma + systemic / pathology microscopic / liver / adenoma + systemic / pathology …
# rabbit [9] = conditions: Prenatal developmental toxicity study, new zealand white, Oral, Gavage/Intubation, dose end: 19 GD
# dog [10] = conditions: Subchronic oral toxicity in nonrodent, beagle, Capsule, dose end: 13 week, group: systemic, systemic / organ weight / thyroid gland / absolute + systemic / organ weight / thyroid gland / relative to body weight
# rat [11] = conditions: Combined chronic toxicity/carcinogenicity, fischer, Oral, Feed, dose end: 24 month, group: systemic
# mouse [12] = conditions: Combined chronic toxicity/carcinogenicity; other; Oral; Feed; dose end: 99 week; group: systemic; systemic / hematology / erythrocyte (rbc) count differential / erythrocyte (rbc) + systemic / hematology / hematocrit (hct) / hematocrit (…
# rat [13] = conditions: Prenatal developmental toxicity study, sprague dawley, Oral, Gavage/Intubation, dose end: 15 GD; remark: listed apart in the source
# dog [14] = conditions: Chronic toxicity, beagle, Oral, Capsule, dose end: 52 week, group: systemic
# rat [15] = conditions: Subchronic oral toxicity in rodents, fischer, Feed, dose end: 13 week
# mouse [16] = conditions: Subchronic oral toxicity in rodents, b6c3f1, Feed, dose end: 13 week
# mouse [17] = conditions: Fertility (Segment I); cd1; Oral; Gavage/Intubation; dose end: 1 generation; group: parental; systemic / pathology gross / sperm measure / sperm morphology
# [18] = group: developmental, developmental / developmental malformation / bone / short supernumerary + developmental / developmental malformation / eye / anophthalmia + …
# [19] = group: maternal, systemic / in life observation / body weight / body weight gain + systemic / in life observation / food consumption / food consumption
# [20] = group: maternal, systemic / in life observation / body weight / body weight gain + systemic / in life observation / food consumption / food consumption + …
# [21] = systemic / clinical chemistry / glucose / glucose
# [22] = systemic / in life observation / clinical signs / desquamation + systemic / in life observation / clinical signs / erythema + systemic / in …
# [23] = group: developmental, systemic / in life observation / body weight / offspring (pup) weight gain + developmental / developmental malformation / aortic arch / …
# [24] = group: maternal, reproductive / offspring survival early / live fetuses / live fetuses + reproductive / offspring survival early / litter size / litter size…
# [25] = group: developmental, developmental / developmental malformation / aortic arch / [other] + developmental / developmental malformation / aortic arch / malformation…
# [26] = group: developmental, developmental / developmental malformation / bone / ossification sites + developmental / developmental malformation / bone / supernumerary…
# [27] = group: maternal, reproductive / reproductive performance / resorptions / resorptions + reproductive / offspring survival early / litter size / litter size
# [28] = group: developmental, developmental / developmental malformation / bone / delayed ossification + developmental / developmental malformation / bone / knobby + …
# [29] = group: maternal, reproductive / reproductive performance / resorptions / resorptions + systemic / hematology / erythrocyte (rbc) count differential / …
# [30] = systemic / clinical chemistry / lactic acid dehydrogenase (ldh) / lactic acid dehydrogenase (ldh) + systemic / hematology / mean corpuscular…
# [31] = systemic / pathology microscopic / liver / fatty change + systemic / pathology microscopic / liver / necrosis + systemic / urinalysis / …
# [32] = group: developmental, developmental / developmental malformation / bone / misaligned + developmental / developmental malformation / bone / ossification sites + …
# [33] = group: maternal, reproductive / reproductive performance / resorptions / resorptions + systemic / in life observation / body weight / body weight + systemic…
# [34] = group: developmental, developmental / developmental malformation / limb / hyperflexion + systemic / in life observation / body weight / fetal weight + …
# [35] = systemic / organ weight / liver / absolute
# [36] = systemic / organ weight / liver / absolute + systemic / pathology microscopic / liver / adenocarcinoma + systemic / pathology microscopic / …
# [37] = group: developmental, developmental / developmental malformation / bone / incomplete ossification + systemic / in life observation / body weight / fetal weight
# [38] = group: maternal, systemic / in life observation / body weight / body weight + systemic / in life observation / body weight / body weight gain + reproductive…
# [39] = systemic / organ weight / liver / absolute + systemic / organ weight / liver / relative to body weight
# [40] = systemic / organ weight / liver / absolute + systemic / organ weight / liver / relative to body weight + systemic / clinical chemistry / …
# [41] = group: maternal, reproductive / reproductive performance / estrous cycle / length
# [42] = group: systemic, systemic / clinical chemistry / alkaline phosphatase (alp/alk) / alkaline phosphatase (alp/alk) + systemic / clinical chemistry / bile acids…
# [43] = group: systemic, systemic / in life observation / body weight / body weight + systemic / in life observation / clinical signs / drooping eyelids (ptosis) + …
smiles,measurement,setting,value
O=S(=O)(C(Cl)(Cl)Cl)C(Cl)(Cl)Cl [Bis(trichloromethyl)sulfone],LEL,rat [1]; [18],50 mg/kg/day
same,LOAEL,rat [1]; [18],50 mg/kg/day
same,NEL,rat [1]; [18],10 mg/kg/day
same,NOAEL,rat [1]; [18],10 mg/kg/day
same,LEL,rat [1]; [19],10 mg/kg/day
same,LOAEL,rat [1]; [19],10 mg/kg/day
same,NEL,rat [1]; [20],2 mg/kg/day
same,NOAEL,rat [1]; [20],2 mg/kg/day
same,LEL,rabbit [2]; [21],0.8 mg/kg/day
same,NEL,rabbit [2]; [21],< 0.8 mg/kg/day
same,LOAEL,rabbit [2]; [22],5 mg/kg/day
same,NOAEL,rabbit [2]; [22],2 mg/kg/day
COCCOCCO [Diethylene glycol monomethyl ether],NEL,"rat [3]; group: developmental, systemic / in life observation / body weight / offspring (pup) weight gain",200 mg/kg/day
same,LOAEL,rat [3]; [23],> 1800 mg/kg/day
same,NOAEL,rat [3]; [23],≥ 1800 mg/kg/day
same,LEL,"rat [3]; group: developmental, systemic / in life observation / body weight / offspring (pup) weight gain + developmental / developmental malformation / bone / …",600 mg/kg/day
same,LEL,"rat [3]; group: maternal, reproductive / offspring survival early / live fetuses / live fetuses",600 mg/kg/day
same,NEL,"rat [3]; group: maternal, reproductive / offspring survival early / live fetuses / live fetuses + reproductive / offspring survival early / litter size / litter size",200 mg/kg/day
same,LOAEL,rat [3]; [24],> 1800 mg/kg/day
same,NOAEL,rat [3]; [24],≥ 1800 mg/kg/day
same,LOAEL,rat [4]; [25],> 2160 mg/kg/day
same,NOAEL,rat [4]; [25],≥ 2160 mg/kg/day
same,LEL,rat [4]; [26],720 mg/kg/day
same,NEL,rat [4]; [26],< 720 mg/kg/day
same,NEL,"rat [4]; group: maternal, reproductive / reproductive performance / resorptions / resorptions",720 mg/kg/day
same,LEL,rat [4]; [27],2160 mg/kg/day
same,LOAEL,rat [4]; [27],> 2160 mg/kg/day
same,NOAEL,rat [4]; [27],≥ 2160 mg/kg/day
same,LEL,rabbit [5]; [28],250 mg/kg/day
same,LOAEL,rabbit [5]; [28],> 750 mg/kg/day
same,NEL,rabbit [5]; [28],50 mg/kg/day
same,NOAEL,rabbit [5]; [28],≥ 750 mg/kg/day
same,LEL,rabbit [5]; [29],750 mg/kg/day
same,LOAEL,rabbit [5]; [29],> 750 mg/kg/day
same,NEL,rabbit [5]; [29],250 mg/kg/day
same,NOAEL,rabbit [5]; [29],≥ 750 mg/kg/day
same,LOAEL,guinea-pig; [30],> 1000 mg/kg/day
same,NOAEL,guinea-pig; [30],≥ 1000 mg/kg/day
same,LEL,guinea-pig; [31],40 mg/kg/day
same,NEL,guinea-pig; [31],< 40 mg/kg/day
same,LOAEL,rat [6]; [32],> 5180 mg/kg/day
same,NEL,rat [6]; [32],1000 mg/kg/day
same,NOAEL,rat [6]; [32],≥ 5180 mg/kg/day
same,LEL,"rat [6]; group: developmental, developmental / developmental malformation / bone / ossification sites",1500 mg/kg/day
same,LOAEL,rat [6]; [33],> 5180 mg/kg/day
same,NEL,rat [6]; [33],2240 mg/kg/day
same,NOAEL,rat [6]; [33],≥ 5180 mg/kg/day
same,LEL,"rat [6]; group: maternal, systemic / in life observation / body weight / body weight + systemic / in life observation / food consumption / food consumption + …",3340 mg/kg/day
CC(C)Oc1cc(-n2nc(C(C)(C)C)oc2=O)c(Cl)cc1Cl [Oxadiazon],LEL,rat [7],100 mg/kg/day
same,LOAEL,rat [7],100 mg/kg/day
same,NEL,rat [7],25 mg/kg/day
same,NOAEL,rat [7],25 mg/kg/day
same,LEL,mouse [8],12 mg/kg/day
same,LOAEL,mouse [8],12 mg/kg/day
same,NEL,mouse [8],< 12 mg/kg/day
same,NOAEL,mouse [8],< 12 mg/kg/day
same,LEL,rabbit [9]; [34],180 mg/kg/day
same,LOAEL,rabbit [9]; [34],180 mg/kg/day
same,NEL,rabbit [9]; [34],60 mg/kg/day
same,NOAEL,rabbit [9]; [34],60 mg/kg/day
same,LEL,rabbit [9]; [19],60 mg/kg/day
same,LOAEL,rabbit [9]; [19],60 mg/kg/day
same,NEL,rabbit [9]; [20],20 mg/kg/day
same,NOAEL,rabbit [9]; [20],20 mg/kg/day
same,LEL,dog [10],25 mg/kg/day
same,LOAEL,dog [10],25 mg/kg/day
same,NEL,dog [10],< 25 mg/kg/day
same,NOAEL,dog [10],< 25 mg/kg/day
same,LEL,rat [11]; [35],4.8 mg/kg/day
same,LOAEL,rat [11]; [35],4.8 mg/kg/day
same,NEL,rat [11]; [36],0.5 mg/kg/day
same,NOAEL,rat [11]; [36],0.5 mg/kg/day
same,LEL,mouse [12],0.315 mg/kg/day
same,LOAEL,mouse [12],10.6 mg/kg/day
same,NEL,mouse [12],< 0.315 mg/kg/day
same,NOAEL,mouse [12],1.09 mg/kg/day
same,LEL,rat [13]; [37],40 mg/kg/day
same,LOAEL,rat [13]; [37],40 mg/kg/day
same,NEL,rat [13]; [37],12 mg/kg/day
same,NOAEL,rat [13]; [37],12 mg/kg/day
same,LOAEL,"rat [13]; group: maternal, systemic / in life observation / body weight / body weight + systemic / in life observation / body weight / body weight gain",40 mg/kg/day
same,LEL,rat [13]; [38],40 mg/kg/day
same,NEL,rat [13]; [38],12 mg/kg/day
same,NOAEL,rat [13]; [38],12 mg/kg/day
same,LEL,dog [14]; [39],20 mg/kg/day
same,LOAEL,dog [14]; [39],20 mg/kg/day
same,NEL,dog [14]; [40],5 mg/kg/day
same,NOAEL,dog [14]; [40],5 mg/kg/day
"NC(=Nc1ccccc1)Nc1ccccc1 [1,3-Diphenylguanidine]",LEL,rat [15]; [41],49 mg/kg/day
same,LOAEL,rat [15]; [41],> 184 mg/kg/day
same,NEL,rat [15]; [41],32 mg/kg/day
same,NOAEL,rat [15]; [41],≥ 184 mg/kg/day
same,LEL,rat [15]; [42],17 mg/kg/day
same,LOAEL,rat [15]; [42],95 mg/kg/day
same,NEL,rat [15]; [42],< 17 mg/kg/day
same,NOAEL,rat [15]; [42],49 mg/kg/day
same,LEL,mouse [16]; [41],577 mg/kg/day
same,LOAEL,mouse [16]; [41],> 577 mg/kg/day
same,NEL,mouse [16]; [41],285 mg/kg/day
same,NOAEL,mouse [16]; [41],≥ 577 mg/kg/day
same,LOAEL,"mouse [16]; group: systemic, systemic / in life observation / body weight / body weight + systemic / in life observation / clinical signs / drooping eyelids (ptosis)",231 mg/kg/day
same,NEL,mouse [16]; [43],38 mg/kg/day
same,NOAEL,mouse [16]; [43],114 mg/kg/day
same,LEL,"mouse [16]; group: systemic, systemic / organ weight / liver / relative to body weight",75 mg/kg/day
same,LEL,mouse [17],16 mg/kg/day
same,LOAEL,mouse [17],> 16 mg/kg/day
same,NEL,mouse [17],4 mg/kg/day
same,NOAEL,mouse [17],≥ 16 mg/kg/day
